Measured values reported in PubChem BioAssay (NCI).
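All cell lines were grown in 96-well plates and treated with compound for 48 hours. TGI denotes the concentration required for complete inhibition of growth.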

Legend:
Test in all cases: growth of human tumour cells (NCI), 48 h
UACC-257 melanoma = tested on: UACC-257 melanoma
MOLT-4 leukemia = tested on: MOLT-4 leukemia
UACC-62 melanoma = tested on: UACC-62 melanoma
MCF7 breast = tested on: MCF7 breast
DU-145 prostate = tested on: DU-145 prostate
SK-MEL-28 melanoma = tested on: SK-MEL-28 melanoma
SK-MEL-5 melanoma = tested on: SK-MEL-5 melanoma
A498 renal = tested on: A498 renal
SF-268 CNS = tested on: SF-268 CNS
BT-549 breast = tested on: BT-549 breast
T-47D breast = tested on: T-47D breast
SW-620 colon = tested on: SW-620 colon
MDA-MB-231 breast = tested on: MDA-MB-231 breast
OVCAR-5 ovarian = tested on: OVCAR-5 ovarian
MDA-MB-435 = tested on: MDA-MB-435
HOP-92 NSCLC = tested on: HOP-92 NSCLC
HS 578T breast = tested on: HS 578T breast
CCRF-CEM leukemia = tested on: CCRF-CEM leukemia
SF-539 CNS = tested on: SF-539 CNS
SF-295 CNS = tested on: SF-295 CNS
NCI-H522 lung = tested on: NCI-H522 lung
NCI-H23 lung = tested on: NCI-H23 lung
HL-60(TB) leukemia = tested on: HL-60(TB) leukemia
HCC-2998 colon = tested on: HCC-2998 colon
HOP-62 NSCLC = tested on: HOP-62 NSCLC
MALME-3M melanoma = tested on: MALME-3M melanoma
TK-10 renal = tested on: TK-10 renal
NCI/ADR-RES ovarian = tested on: NCI/ADR-RES ovarian
SR leukemia = tested on: SR leukemia
HCT-116 colon = tested on: HCT-116 colon
786-0 renal = tested on: 786-0 renal
NCI-H226 lung = tested on: NCI-H226 lung
HCT-15 colon = tested on: HCT-15 colon
SN12C renal = tested on: SN12C renal
LOX IMVI melanoma = tested on: LOX IMVI melanoma
HT29 colon = tested on: HT29 colon
KM12 colon = tested on: KM12 colon
MDA-N = tested on: MDA-N
ACHN renal = tested on: ACHN renal
SK-MEL-2 melanoma = tested on: SK-MEL-2 melanoma
SNB-75 CNS = tested on: SNB-75 CNS
RPMI-8226 leukemia = tested on: RPMI-8226 leukemia
M14 melanoma = tested on: M14 melanoma
RXF 393 renal = tested on: RXF 393 renal
CAKI-1 renal = tested on: CAKI-1 renal
A549 NSCLC = tested on: A549 NSCLC
SK-OV-3 ovarian = tested on: SK-OV-3 ovarian
EKVX NSCLC = tested on: EKVX NSCLC
OVCAR-8 ovarian = tested on: OVCAR-8 ovarian
PC-3 prostate = tested on: PC-3 prostate
UO-31 renal = tested on: UO-31 renal
OVCAR-3 ovarian = tested on: OVCAR-3 ovarian
OVCAR-4 ovarian = tested on: OVCAR-4 ovarian
IGROV1 ovarian = tested on: IGROV1 ovarian
COLO 205 colon = tested on: COLO 205 colon
NCI-H460 lung = tested on: NCI-H460 lung
U251 CNS = tested on: U251 CNS
SNB-19 CNS = tested on: SNB-19 CNS
K-562 leukemia = tested on: K-562 leukemia

In the case of `c1ccc(-c2nc(-c3ccccc3)c(-c3ccccc3)[nH]2)cc1`, the TGI (UACC-257 melanoma) is reported as > 100 µM, the TGI (MOLT-4 leukemia) is reported as > 57 µM and the TGI (UACC-62 melanoma) is reported as > 100 µM. The TGI (MCF7 breast) was > 100 µM, the TGI (DU-145 prostate) was > 100 µM and the TGI (SK-MEL-28 melanoma) was > 100 µM. For the same compound, the TGI (SK-MEL-5 melanoma) was > 100 µM, the TGI (A498 renal) was > 100 µM and the TGI (SF-268 CNS) was > 100 µM. For the same compound, the TGI (BT-549 breast) was > 100 µM, the TGI (T-47D breast) was > 100 µM and the TGI (SW-620 colon) was > 100 µM. The TGI (MDA-MB-231 breast) was > 100 µM, the TGI (OVCAR-5 ovarian) was > 100 µM and the TGI (MDA-MB-435) was > 100 µM. The TGI (HOP-92 NSCLC) was > 100 µM, the TGI (HS 578T breast) was > 82 µM and the TGI (CCRF-CEM leukemia) was 36.5 µM. The TGI (SF-539 CNS) was > 100 µM, the TGI (SF-295 CNS) was > 100 µM and the TGI (NCI-H522 lung) was > 100 µM. The TGI (NCI-H23 lung) was > 100 µM, the TGI (HL-60(TB) leukemia) was 36.9 µM and the TGI (HCC-2998 colon) was > 100 µM. For the same compound, the TGI (HOP-62 NSCLC) was > 100 µM, the TGI (MALME-3M melanoma) was > 100 µM and the TGI (TK-10 renal) was > 100 µM. For the same compound, the TGI (NCI/ADR-RES ovarian) was > 100 µM, the TGI (SR leukemia) was 46.3 µM and the TGI (HCT-116 colon) was > 100 µM. For the same compound, the TGI (786-0 renal) was > 100 µM, the TGI (NCI-H226 lung) was > 100 µM and the TGI (HCT-15 colon) was > 100 µM. The TGI (SN12C renal) was > 100 µM, the TGI (LOX IMVI melanoma) was > 100 µM and the TGI (HT29 colon) was > 100 µM. For the same compound, the TGI (KM12 colon) was > 100 µM, the TGI (MDA-N) was > 100 µM and the TGI (ACHN renal) was > 100 µM. The TGI (SK-MEL-2 melanoma) was > 100 µM, the TGI (SNB-75 CNS) was > 100 µM and the TGI (RPMI-8226 leukemia) was > 72.9 µM. The TGI (M14 melanoma) was > 100 µM, the TGI (RXF 393 renal) was > 100 µM and the TGI (CAKI-1 renal) was > 100 µM. The TGI (A549 NSCLC) was > 100 µM, the TGI (SK-OV-3 ovarian) was > 100 µM and the TGI (EKVX NSCLC) was > 100 µM. For the same compound, the TGI (OVCAR-8 ovarian) was > 100 µM, the TGI (PC-3 prostate) was > 100 µM and the TGI (UO-31 renal) was > 100 µM. The TGI (OVCAR-3 ovarian) was > 100 µM, the TGI (OVCAR-4 ovarian) was > 100 µM and the TGI (IGROV1 ovarian) was > 100 µM. The TGI (COLO 205 colon) was > 100 µM, the TGI (NCI-H460 lung) was > 100 µM and the TGI (U251 CNS) was > 100 µM. For the same compound, the TGI (SNB-19 CNS) was > 100 µM.

With `CCOC(=O)/C=C(/C(=O)OCC)n1cc(C)c(=O)n(Cc2cn(COCCOC(C)=O)nn2)c1=O` the TGI (UACC-257 melanoma) was 49.9 µM, the TGI (MOLT-4 leukemia) was > 61.2 µM and the TGI (UACC-62 melanoma) was 40.9 µM. The TGI (MCF7 breast) was 43.5 µM, the TGI (DU-145 prostate) was > 90.2 µM and the TGI (SK-MEL-28 melanoma) was 57.1 µM. The TGI (SK-MEL-5 melanoma) was > 59.8 µM, the TGI (A498 renal) was > 100 µM and the TGI (SF-268 CNS) was 48.2 µM. The TGI (BT-549 breast) was 37.9 µM, the TGI (T-47D breast) was > 64.3 µM and the TGI (SW-620 colon) was > 57.6 µM. It also gave a TGI (MDA-MB-231 breast) of 50.9 µM, a TGI (OVCAR-5 ovarian) of 65 µM and a TGI (MDA-MB-435) of 52.7 µM. The TGI (HOP-92 NSCLC) was 28.8 µM, the TGI (HS 578T breast) was > 78.3 µM and the TGI (CCRF-CEM leukemia) was 5.33 µM. The TGI (SF-539 CNS) was 38.1 µM, the TGI (SF-295 CNS) was > 100 µM and the TGI (NCI-H522 lung) was 6.9 µM. For the same compound, the TGI (NCI-H23 lung) was 26.3 µM, the TGI (HL-60(TB) leukemia) was 84 µM and the TGI (HCC-2998 colon) was 37.6 µM. For the same compound, the TGI (HOP-62 NSCLC) was > 100 µM, the TGI (MALME-3M melanoma) was 23.7 µM and the TGI (TK-10 renal) was 29.2 µM. The TGI (NCI/ADR-RES ovarian) was 67.9 µM, the TGI (SR leukemia) was > 94.9 µM and the TGI (HCT-116 colon) was > 53.3 µM. The TGI (786-0 renal) was > 54.8 µM, the TGI (NCI-H226 lung) was > 54 µM and the TGI (HCT-15 colon) was > 61.9 µM. It also gave a TGI (SN12C renal) of 59.8 µM, a TGI (LOX IMVI melanoma) of 47.8 µM and a TGI (HT29 colon) of 30.7 µM. The TGI (KM12 colon) was > 62.9 µM, the TGI (MDA-N) was > 85.4 µM and the TGI (ACHN renal) was 21.6 µM. For the same compound, the TGI (SK-MEL-2 melanoma) was > 100 µM, the TGI (SNB-75 CNS) was > 100 µM and the TGI (RPMI-8226 leukemia) was 57.7 µM. For the same compound, the TGI (M14 melanoma) was > 100 µM, the TGI (RXF 393 renal) was > 70 µM and the TGI (CAKI-1 renal) was 23.6 µM. For the same compound, the TGI (A549 NSCLC) was > 100 µM, the TGI (SK-OV-3 ovarian) was > 100 µM and the TGI (EKVX NSCLC) was 31.3 µM. The TGI (OVCAR-8 ovarian) was 32.7 µM, the TGI (PC-3 prostate) was > 100 µM and the TGI (UO-31 renal) was 7.99 µM. It also gave a TGI (OVCAR-3 ovarian) of 56.1 µM, a TGI (OVCAR-4 ovarian) of 40 µM and a TGI (IGROV1 ovarian) of 32.1 µM. The TGI (K-562 leukemia) was 63.2 µM, the TGI (COLO 205 colon) was > 55.2 µM and the TGI (NCI-H460 lung) was > 63.1 µM. The TGI (U251 CNS) was > 73.8 µM and the TGI (SNB-19 CNS) was > 92.5 µM.
